Like-named read-outs stand apart in the source and are kept apart here.
What was measured:
[1] = system: murine CD4+ CD25− T cells; test: Th17 differentiation of activated CD4+ CD25− T cells (TGFβ plus IL-6; IL-17+ IFNγ− cells); assay type: cell-based, mouse; details: for rescue of HF-inhibited Th17 differentiation by added amino acids: 1 mM amino acids; for IC50: Mus musculus, T-cell
Experimental: (§1) Purified CD4^+ CD25^− T cells were activated in vitro as previously described (Djuretic et al., Nat. Immunol. 8:145, 2007) using 0.3 μg/ml hamster anti-mouse CD3 (clone 145-2C11) (ATCC—Manassas, Va.) and 0.5 μg/ml hamster anti-mouse CD28 (BD Pharmingen—San Jose, Calif.). Activated cell cultures were differentiated using the following combinations of cytokines and antibodies: iTreg-recombinant human TGFβ1 (3 ng/ml—R&D systems, Minneapolis, Minn.), Th17-TGFβ1 (3 ng/ml) plus recombinant mouse IL-6 (30 ng/ml—R&D systems). Th1 and Th2 differentiation was performed as previously described (Djuretic et al., Nat. Immunol. 8:145, 2007). Human IL-2 supernatant (National Cancer Institute) was used in culture at 0.01 U/ml and was added at 48 hours-post activation when T cells were split into tissue culture wells lacking CD3 and CD28 antibodies, with the exception of Th17 cultures that were maintained in the absence of exogenous IL-2. CD8^+ T cells were activated with 1 μg/ml anti-CD3 and 1 μg/ml anti-CD28 and were expanded in 0.1 U/ml IL-2 until day 6 post activation. CD43-depleted B cells were activated in vitro by culturing with 25 μg/ml LPS (Sigma—St. Louis, Mo.) for 3-4 days in the presence or absence of TGFβ. All reagents (see below) were added at the time of T cell activation and again at 48 hours post activation unless indicated otherwise. For some experiments, purified CD4^+ CD25^− T cells, CD8^+ T cells or B cells were labeled with 1 μM CFSE (Invitrogen) prior to activation in accordance with manufacturer's instructions. Human T cell activation was performed by plating purified monocytes in a 96-well flat bottom plate at a concentration of 2×10^4 cells per well in complete medium overnight. 10^5 purified human memory T cells were added to monocyte cultures in the presence of soluble anti-CD3/anti-CD28 beads (Dynabeads, Invitrogen). T cells were expanded in the presence HF or MAZ1310 for up to 6 days.
MAZ1310 (Kamberov, Ph.D. Dissertation, Harvard University, 2008) was generated by chemical derivatization of halofuginone and was used at equal concentrations as a negative control. HF and MAZ1310 were prepared as 100 mM stock solutions in DMSO and diluted to the indicated concentrations. SB-431542 (Inman et al., Mol. Pharmacol. 62:65, 2002) (Tocris bioscience—Ellisville, Mo.) was prepared as a 10 mM stock solution in DMSO and was used in culture at 10 μM. L-tryptophanol was prepared as a 20 mM stock solution in 0.1 M NaOH, pH 7.4 and was used at 0.2 mM. For amino acid starvation experiments, T cells were activated and differentiated as above in D-MEM medium without L-cysteine and L-methionine (Invitrogen—Carlsbad, Calif.), or D-MEM medium without L-leucine. Stocks containing 20 mM L-cysteine (Sigma—St. Louis, Mo.) plus 10 mM L-methionine (Sigma), or 400 mM L-leucine (Sigma) were prepared in ddH2O, pH 1.0 and were added to medium at the indicated concentrations.
(§2) For detection of intracellular cytokines in murine cells, cultured T or B cells were stimulated with 10 nM PMA (Sigma) and […] (Sigma) for 4-5 hours in the presence of 10 mM brefeldin A (Sigma). Stimulated cells were harvested, washed with PBS and fixed with PBS plus 4% paraformaldehyde at room temperature for 20 minutes. Cells were then washed with PBS, permeabilized with PBS supplemented with 1% BSA and 0.5% saponin (Sigma) at room temperature for 10 minutes before cytokine-specific antibodies were added and incubated with cells for an additional 20 minutes at room temperature.

[2] = system: murine CD4+ CD25− T cells, CD8+ T cells, B cells; test: T and B cell activation, proliferation, cytokine production and Th1/Th2/iTreg differentiation; assay type: cell-based, mouse
Experimental: FIG. 2A, Left, is a graph showing dose response analyses performed on activated carboxyfluorescein succinimidyl ester (CFSE)-labeled CD4^+CD25^− T cells in the presence of DMSO, 40 nM MAZ1310, or increasing concentrations of halofuginone (HF) (1.25-40 nM). CFSE dilution and cell surface CD25 expression were determined 48 hours after activation. Intracellular cytokine production was determined on day 4 or 5 following restimulation with phorbol myristate acetate (PMA) and ionomycin. […] FIG. 2A, Right is a graph showing dose-response analyses of HF effects on CD8^+ T cell or B cell function. Cells were activated in the presence of DMSO, 40 nM MAZ1310, or increasing concentrations of HF (1.25-40 nM). CFSE dilution, cell surface CD25 expression, and intracellular cytokine production were determined as above 2-5 days after activation.
At approximately 10-fold higher concentrations (>20 nM), HF induced a general inhibition of T and B cell activation, proliferation, and effector function (FIG. 2A, 2B).
as §1
Cytokines secreted into media supernatant were measured using the mouse Th1/Th2 cytometric bead array (CBA—BD Pharmingen) in accordance with manufacturers instructions. Briefly, CD4+ CD25− T cells were activated in anti-CD3/anti-CD28-coated tissue culture wells (see above) and supernatants were collected at the indicated times.
as §2, with “temperature. […]” for “temperature.”

[3] = low concentrations of tunicamycin
[4] = low concentrations of HF (1-10 nM)

## tunicamycin
[1]; [3]
  IL-17 expression in T cells: little influence on IL-17 expression
[2]; [3]
  Th1 and Th2 differentiation: preferentially impaired Th1 and Th2 differentiation

## O=C(CC1NCCCC1O)Cn1cnc2cc(Br)c(Cl)cc2c1=O (racemic) [HF, halofuginone]
[1]
  IL-17 expression with IFNγ and IL-4 blocked by neutralizing antibodies: reduced IL-17 expression
  Th17 differentiation in T cells transduced with RORγt-expressing vs empty retroviruses: inhibited Th17 differentiation as effectively
[1]; 5 nM, 10 nM HF
  IL-17 expression in cells with equivalent number of cell divisions (CFSE dilution): inhibited IL-17 expression in a dose-dependent manner
[1]; 10 nM HF
  IL-17 expression in T cells lacking Foxp3: strongly repressed IL-17 expression
  Th17 differentiation of T cells expressing STAT3C: remained capable of differentiating into Th17 cells
  upregulation of RORγt or RORα during Th17 differentiation: did not interfere
  rescue of HF-inhibited Th17 differentiation by added amino acids: only proline rescued Th17 differentiation
[1]; 10 nM HF added at times after activation
  time of HF addition for inhibition of IL-17 expression: most pronounced when HF was added during a 12-hour window at the start of the culture period
[1]; 10 nM HF, listed as halofuginone
  rescue of HF-inhibited Th17 differentiation by added amino acids: Proline, and no other added amino acid, rescues the inhibition of Th17 differentiation
[1]; 10 nM HF, day 3
  Foxp3 expression in T cells differentiated with TGFβ plus IL-6: enhanced Foxp3 expression
[1]; 10 nM, 4 days, Th17 conditions
  expression of IL-17 and IL-17f mRNA: impaired
[1]; 96 h, restimulation on day 4-5, read-out: IC50 for Th17 differentiation (percentage of IL-17+ IFNγ− cells)
  IC50: 3.6 nM
[1]; read-out: concentration giving 50% inhibition of Th17 cell development
  IC50: ~3 nM
[1]; TAT-Cre treated, TGFβ plus IL-6
  Th17 differentiation of cells expressing YFP or no transgene: strongly impaired Th17 differentiation
[1]; [4]
  IL-17 production: strongly reduced
[2]
  concentration inducing general inhibition of T and B cell activation, proliferation, and effector function: > 20 nM
[2]; [4]
  CD25 upregulation: did not affect
  T cell proliferation: did not affect
  production of IL-2, TNF, or IFNγ: did not affect
[2]; low-dose HF
  Th1, Th2 or iTreg differentiation (IFNγ, IL-4, or Foxp3 expression): failed to modulate
